The subject of experiment [1] is IL-13 induced STAT6 promotor luciferase reporter in U937 monocytes (U937-STAT6-Luc). Description: Cellular interleukin (IL-13) induced JAK-STAT6-luciferase assay (pSTAT6). The experiment is classed as cell-based. As to conditions: Homo sapiens, U-937; IL-13 induced STAT6-luciferase, U937-STAT6-Luc cells. The protocol: Cells were harvested by centrifugation at 250 g for 5 min and resuspended in Assay buffer (20 mM HEPES, 1×HBSS and 0.1% BSA) to 1000 cells pr μl. For stimulation of cells was used interleukin (IL-13) also dissolved in Assay buffer to […]. […] Test and control compounds were applied to assay plates (low vol white 384-well plates) in serial dilutions from 10 mM to 0.5 nM at 5 nl pr well in DMSO.
To each well was added 4 μl cells and 4 μl interleukin (IL-13) and the plates were sealed and incubated at 37° C. for 4½ h and then at room temperature for 30 min. The assay was developed by addition of 4 μl pr well of SteadyGlo (Promega) and after […] the plates were read at an Envision plate reader with luminescence filter.

In experiment [2] the target is recombinant JAK3 (amino acids 781-1124) (Homo sapiens (Human), UniProt P52333). In words: Enzyme inhibition studies, JAK3 (5 mM ATP, Caliper). The format is biochemical. The protocol: (§1) JAK enzyme was expressed as N-terminal GST fusion in insect cells and purified by glutathione-affinity and size-exclusion chromatographies. Enzymes were assayed at their approximated high end of physiological ATP concentration of 5 mM, in the presence of inhibitor dosed at 30, 3, 0.3, 0.03, 0.003 and 0 μM final test concentrations.
Chain of recombinant JAK3 (amino acids 781-1124) (P52333 781-1124): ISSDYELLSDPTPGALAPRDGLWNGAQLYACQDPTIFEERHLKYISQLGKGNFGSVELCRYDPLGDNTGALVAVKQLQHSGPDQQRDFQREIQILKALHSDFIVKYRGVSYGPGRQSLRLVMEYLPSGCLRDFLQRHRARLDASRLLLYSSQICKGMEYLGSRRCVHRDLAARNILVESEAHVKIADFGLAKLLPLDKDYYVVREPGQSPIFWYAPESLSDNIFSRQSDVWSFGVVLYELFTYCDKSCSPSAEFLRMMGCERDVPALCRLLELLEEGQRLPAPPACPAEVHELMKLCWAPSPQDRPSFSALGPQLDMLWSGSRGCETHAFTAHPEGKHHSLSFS
(§2) Phosphorylated and unphosphotylated peptides were separated and quantified by a Caliper LC3000 system (Caliper Life Sciences, MA) for calculating percent inhibition.

For experiment [3], the target named is recombinant JAK1 (amino acids 866-1154) (Homo sapiens (Human), UniProt P23458). Description: Enzyme inhibition studies, JAK1 (5 mM ATP, Caliper). The experiment is classed as biochemical. The protocol: as §1, §2
Chain of recombinant JAK1 (amino acids 866-1154) (P23458 866-1154): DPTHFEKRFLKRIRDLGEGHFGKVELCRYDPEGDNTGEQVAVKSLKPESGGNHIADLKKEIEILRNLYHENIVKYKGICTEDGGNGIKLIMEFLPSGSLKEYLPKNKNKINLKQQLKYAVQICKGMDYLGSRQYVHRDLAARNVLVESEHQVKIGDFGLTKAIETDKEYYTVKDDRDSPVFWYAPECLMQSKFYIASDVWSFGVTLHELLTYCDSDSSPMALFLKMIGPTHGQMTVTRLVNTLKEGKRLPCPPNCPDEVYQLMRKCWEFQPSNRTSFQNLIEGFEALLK
Experiment [4] concerns the target recombinant JAK2 (amino acids 831-1132) (Homo sapiens (Human), UniProt O60674). In words: Enzyme inhibition studies, JAK2 (5 mM ATP, Caliper). The experiment is classed as biochemical. The protocol:
as §1, §2

By IC50 is commonly meant the concentration that gives 50% inhibition.

Chain of recombinant JAK2 (amino acids 831-1132) (O60674 831-1132): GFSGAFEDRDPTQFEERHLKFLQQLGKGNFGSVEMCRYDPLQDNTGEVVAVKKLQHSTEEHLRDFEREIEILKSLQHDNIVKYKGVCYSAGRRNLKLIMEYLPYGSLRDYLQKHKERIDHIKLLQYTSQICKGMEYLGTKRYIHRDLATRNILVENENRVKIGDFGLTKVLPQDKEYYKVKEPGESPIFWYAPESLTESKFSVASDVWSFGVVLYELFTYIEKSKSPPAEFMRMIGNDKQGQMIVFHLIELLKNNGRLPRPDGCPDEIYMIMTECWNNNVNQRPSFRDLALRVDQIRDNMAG

With `CC(C(=O)Nc1cccc2c(-c3nc(Nc4cccc(S(C)(=O)=O)c4F)ncc3F)c[nH]c12)N1CCN(C)C[C@H]1C` (stereo in doubt) [Example 49, (R)-2-((R)-2,4-dimethylpiperazin-1-yl)-N-(3-(5-fluoro-2-((2-fluoro-3-(methylsulfonyl)phenyl)amino)pyrimidin-4-yl)-1H-indol-7-yl)propanamide], the IC50 in experiment [1] is 0.093 µM; in experiment [2], over 30 µM; in experiment [3] it was 0.013 µM.
Turning to `CC[C@@H](C(=O)Nc1cccc2c(-c3nc(Nc4cccc(S(C)(=O)=O)c4F)ncc3C)c[nH]c12)N1CCN(C)CC1C` (stereo in doubt) [Example 50, (S)-2-((R)-2,4-dimethylpiperazin-1-yl)-N-(3-(2-((2-fluoro-3-(methylsulfonyl)phenyl)amino)-5-methylpyrimidin-4-yl)-1H-indol-7-yl)butanamide], the IC50 in experiment [1] is 0.362 µM; in experiment [2], over 30 µM; in experiment [3], 0.0485 µM; in experiment [4], over 30 µM.
For `CC[C@H](C(=O)Nc1cccc2c(-c3nc(Nc4cccc(S(C)(=O)=O)c4F)ncc3C)c[nH]c12)N1CCN(C)CC1C` (stereo in doubt) [Example 51, (R)-2-((R)-2,4-dimethylpiperazin-1-yl)-N-(3-(2-((2-fluoro-3-(methylsulfonyl)phenyl)amino)-5-methylpyrimidin-4-yl)-1H-indol-7-yl)butanamide], the IC50 is 0.024 µM in experiment [1], over 30 µM in experiment [2], under 0.003 µM in experiment [3] and 0.612 µM in experiment [4].
On the same counts, the results for `CC[C@@H](C(=O)Nc1cccc2c(-c3nc(Nc4cccc(S(C)(=O)=O)c4F)ncc3F)c[nH]c12)N1CCN(C)CC1C` (stereo in doubt) [Example 52, (S)-2-((R)-2,4-dimethylpiperazin-1-yl)-N-(3-(5-fluoro-2-((2-fluoro-3-(methylsulfonyl)phenyl)amino)pyrimidin-4-yl)-1H-indol-7-yl)butanamide] are 1.07 µM, over 30 µM, 0.348 µM and over 30 µM.
On to `CC[C@H](C(=O)Nc1cccc2c(-c3nc(Nc4cccc(S(C)(=O)=O)c4F)ncc3F)c[nH]c12)N1CCN(C)CC1C` (stereo in doubt) [Example 53, (R)-2-((R)-2,4-dimethylpiperazin-1-yl)-N-(3-(5-fluoro-2-((2-fluoro-3-(methylsulfonyl)phenyl)amino)pyrimidin-4-yl)-1H-indol-7-yl)butanamide], for which the IC50 in experiment [1] was 0.048 µM; in experiment [2], over 30 µM; in experiment [3], under 0.003 µM; in experiment [4], 2.08 µM.
`CC[C@H](C(=O)Nc1cccc2c(-c3nc(Nc4cccc(S(C)(=O)=O)c4F)ncc3C)c[nH]c12)N1CCN(C)CC1C` (stereo in doubt) [Example 60, (R)-2-((S)-2,4-dimethylpiperazin-1-yl)-N-(3-(2-((2-fluoro-3-(methylsulfonyl)phenyl)amino)-5-methylpyrimidin-4-yl)-1H-indol-7-yl)butanamide]: the IC50 in experiment [1] is 0.0642 µM; in experiment [2] it was over 30 µM; in experiment [3], 0.0074 µM; in experiment [4] it was 11.9 µM.
In the case of `CC[C@@H](C(=O)Nc1cccc2c(-c3nc(Nc4cccc(S(C)(=O)=O)c4F)ncc3C)c[nH]c12)N1CCN(C)CC1C` (stereo in doubt) [Example 61, (S)-2-((S)-2,4-dimethylpiperazin-1-yl)-N-(3-(2-((2-fluoro-3-(methylsulfonyl)phenyl)amino)-5-methylpyrimidin-4-yl)-1H-indol-7-yl)butanamide], the IC50 in experiment [1] is 0.163 µM; in experiment [2], over 30 µM; in experiment [3], 0.0428 µM; in experiment [4] it was over 30 µM.
In the case of `Cc1cnc(Nc2cccc(S(C)(=O)=O)c2F)nc1-c1c[nH]c2c(NC(=O)[C@@H](C)N3CCN(CCO)CC3)cccc12` [Example 1, (R)-N-(3-(2-((2-fluoro-3-(methylsulfonyl)phenyl)amino)-5-methylpyrimidin-4-yl)-1H-indol-7-yl)-2-(4-(2-hydroxyethyl)piperazin-1-yl)propanamide], the IC50 is 0.041 µM in experiment [1], over 30 µM in experiment [2], under 0.003 µM in experiment [3] and 1.58 µM in experiment [4].
`Cc1cnc(Nc2cccc(S(C)(=O)=O)c2F)nc1-c1c[nH]c2c(NC(=O)[C@@H](C)N3CCN(C)CC3)cccc12` [Example 2, (R)-N-(3-(2-((2-fluoro-3-(methylsulfonyl)phenyl)amino)-5-methylpyrimidin-4-yl)-1H-indol-7-yl)-2-(4-methylpiperazin-1-yl)propanamide]: the IC50 in experiment [1] is 0.032 µM; in experiment [2], over 30 µM; in experiment [3] it was at most 0.003 µM; in experiment [4], 7.35 µM.
For `CCS(=O)(=O)c1cccc(Nc2ncc(C)c(-c3c[nH]c4c(NC(=O)[C@@H](C)N5CCN(C)CC5)cccc34)n2)c1F` [Example 3, (R)-N-(3-(2-(3-(ethylsulfonyl)-2-fluorophenylamino)-5-methylpyrimidin-4-yl)-1H-indol-7-yl)-2-(4-methylpiperazin-1-yl)propanamide], the IC50 in experiment [1] is 0.039 µM; in experiment [2] it was over 30 µM; in experiment [3], under 0.003 µM; in experiment [4], 4.12 µM.
In the case of `Cc1cnc(Nc2cccc(S(=O)(=O)C3CC3)c2F)nc1-c1c[nH]c2c(NC(=O)[C@@H](C)N3CCN(C)CC3)cccc12` [Example 4], the IC50 in experiment [1] is 0.027 µM; in experiment [2], over 30 µM; in experiment [3], under 0.003 µM; in experiment [4], 1.6 µM.
In experiment [1], `Cc1cnc(Nc2cccc(S(C)(=O)=O)c2F)nc1-c1c[nH]c2c(NC(=O)[C@@H](C)N3C[C@H](C)N[C@@H](C)C3)cccc12` [Example 9, (R)-2-((3S,5S)-3,5-dimethylpiperazin-1-yl)-N-(3-(2-((2-fluoro-3-(methylsulfonyl)phenyl)amino)-5-methylpyrimidin-4-yl)-1H-indol-7-yl)propanamide] came in with an IC50 of 0.055 µM.
For the compound `COC[C@@H](C(=O)Nc1cccc2c(-c3nc(Nc4cccc(S(C)(=O)=O)c4F)ncc3C)c[nH]c12)N1CCN(C)CC1` [Example 15, (S)-N-(3-(2-((2-fluoro-3-(methylsulfonyl)phenyl)amino)-5-methylpyrimidin-4-yl)-1H-indol-7-yl)-3-methoxy-2-(4-methylpiperazin-1-yl)propanamide], the IC50 in experiment [1] is 0.465 µM; in experiment [2] it was over 30 µM; in experiment [3], 0.213 µM.
In the case of `COC[C@H](C(=O)Nc1cccc2c(-c3nc(Nc4cccc(S(C)(=O)=O)c4F)ncc3C)c[nH]c12)N1CCN(C)CC1` [Example 16, (R)-N-(3-(2-((2-fluoro-3-(methylsulfonyl)phenyl)amino)-5-methylpyrimidin-4-yl)-1H-indol-7-yl)-3-methoxy-2-(4-methylpiperazin-1-yl)propanamide], the IC50 in experiment [1] is 0.018 µM; in experiment [2] it was over 30 µM; in experiment [3], under 0.003 µM.
Turning to `CC[C@H](C(=O)Nc1cccc2c(-c3nc(Nc4cccc(S(C)(=O)=O)c4F)ncc3C)c[nH]c12)N1C[C@H](C)N(C)[C@@H](C)C1` [Example 20, (R)-N-(3-(2-((2-fluoro-3-(methylsulfonyl)phenyl)amino)-5-methylpyrimidin-4-yl)-1H-indol-7-yl)-2-((3S,5S)-3,4,5-trimethylpiperazin-1-yl)butanamide], in experiment [1], the IC50 was determined as 0.051 µM.
Take `COC[C@@H](C(=O)Nc1cccc2c(-c3nc(Nc4cccc(S(C)(=O)=O)c4F)ncc3F)c[nH]c12)N1CCN(C)CC1` [Example 34, (S)-N-(3-(5-fluoro-2-((2-fluoro-3-(methylsulfonyl)phenyl)amino)pyrimidin-4-yl)-1H-indol-7-yl)-3-methoxy-2-(4-methylpiperazin-1-yl)propanamide]: the values for the IC50 in experiment [1], in experiment [2] and in experiment [3] were over 4.2 µM, over 30 µM and 1.84 µM, respectively.
For `CCOC[C@H](C(=O)Nc1cccc2c(-c3nc(Nc4cccc(S(C)(=O)=O)c4F)ncc3F)c[nH]c12)N1CCN(C)CC1` [Example 63, (R)-3-ethoxy-N-(3-(5-fluoro-2-((2-fluoro-3-(methylsulfonyl)phenyl)amino)pyrimidin-4-yl)-1H-indol-7-yl)-2-(4-methylpiperazin-1-yl)propanamide], half-maximal inhibition in experiment [1] (IC50) required 0.099 µM.
The same measure, in the same setting: to `COC[C@H](C(=O)Nc1cccc2c(-c3nc(Nc4cccc(S(C)(=O)=O)c4F)ncc3F)c[nH]c12)N1CCNCC1` [Example 66, (R)-N-(3-(5-fluoro-2-(2-fluoro-3-(methylsulfonyl)phenylamino)pyrimidin-4-yl)-1H-indol-7-yl)-3-methoxy-2-(piperazin-1-yl)propanamide] belongs 0.051 µM; to `COC[C@@H](C(=O)Nc1cccc2c(-c3nc(Nc4cccc(S(C)(=O)=O)c4F)ncc3F)c[nH]c12)N1CCNCC1` [Example 67, (S)-N-(3-(5-fluoro-2-(2-fluoro-3-(methylsulfonyl)phenylamino)pyrimidin-4-yl)-1H-indol-7-yl)-3-methoxy-2-(piperazin-1-yl)propanamide], 1.39 µM.

Source of the values: patent US10961228B2, “JAK1 selective inhibitors” (AstraZeneca AB, priority 2017, dated 2021).
